{"source": "ChEMBL document CHEMBL3045329", "about": "“Synthesis, biological evaluation, and pharmacokinetic profiling of benzophenone derivatives as tumor necrosis factor-alpha and interleukin-6 inhibitors” (Med Chem Res, 2012)", "key": {"[1]": {"experiment": "Cytotoxicity against Homo sapiens (human) […] at 10 uM after 24 hr", "type": "cell-based", "conditions": "cck8, 24 h"}, "THP-1 [2]": {"test_system": "THP-1", "experiment": "Anti-inflammatory activity in Homo sapiens (human) PMA-stimulated THP1 cells assessed as inhibition of LPS-induced IL6 production at 10 uM incubated for 30 min prior to LPS-challenge measured after 24 hr by ELISA", "type": "functional"}, "THP-1 [3]": {"test_system": "THP-1", "experiment": "Anti-inflammatory activity in Homo sapiens (human) PMA-stimulated THP1 cells assessed as inhibition of LPS-induced TNFalpha production at 10 uM incubated for 30 min prior to LPS-challenge measured after 24 hr by ELISA", "type": "functional", "conditions": "values are per cent of control"}, "THP-1 [4]": {"test_system": "THP-1", "experiment": "Anti-inflammatory activity in Homo sapiens (human) PMA-stimulated THP1 cells assessed as inhibition of LPS-induced IL6 production incubated for 30 min prior to LPS-challenge measured after 24 hr by ELISA", "type": "functional, cell-based"}, "[5]": {"experiment": "Cytotoxicity against Homo sapiens (human) […] cells at 1 uM after 24 hr", "type": "cell-based"}, "THP-1 [6]": {"test_system": "THP-1", "experiment": "Anti-inflammatory activity in Homo sapiens (human) PMA-stimulated THP1 cells assessed as inhibition of LPS-induced IL6 production at 1 uM incubated for 30 min prior to LPS-challenge measured after 24 hr by ELISA", "type": "functional"}, "THP-1 [7]": {"test_system": "THP-1", "experiment": "Anti-inflammatory activity in Homo sapiens (human) PMA-stimulated THP1 cells assessed as inhibition of LPS-induced TNFalpha production at 1 uM incubated for 30 min prior to LPS-challenge measured after 24 hr by ELISA", "type": "functional"}}, "data": [{"smiles": "COc1cc(OC)c(C(=O)c2ccccc2)c(O)c1Br", "values": [{"measurement": "Activity", "setting": "[1]", "result": 38, "unit": "%"}, {"measurement": "inhibition at 10 µM", "setting": "THP-1 [2]", "result": 80, "unit": "%"}, {"measurement": "response, % of control at 10 µM", "setting": "THP-1 [3]", "result": 19, "unit": "%"}]}, {"smiles": "COc1cc(OC)c(C(=O)c2ccccc2F)c(O)c1Br", "values": [{"measurement": "Activity", "setting": "[1]", "result": 46, "unit": "%"}, {"measurement": "inhibition at 10 µM", "setting": "THP-1 [2]", "result": 76, "unit": "%"}, {"measurement": "response, % of control at 10 µM", "setting": "THP-1 [3]", "result": 0, "unit": "%"}]}, {"smiles": "COc1cc(OC)c(C(=O)c2ccc(F)cc2)c(O)c1Br", "values": [{"measurement": "Activity", "setting": "[1]", "result": 19, "unit": "%"}, {"measurement": "inhibition at 10 µM", "setting": "THP-1 [2]", "result": 63, "unit": "%"}, {"measurement": "response, % of control at 10 µM", "setting": "THP-1 [3]", "result": 0, "unit": "%"}, {"measurement": "IC50", "setting": "THP-1 [4]", "result": 190, "unit": "nM"}]}, {"smiles": "COc1cc(OC)c(C(=O)c2ccccc2C)c(O)c1Br", "values": [{"measurement": "Activity", "setting": "[1]", "result": 40, "unit": "%"}, {"measurement": "inhibition at 10 µM", "setting": "THP-1 [2]", "result": 70, "unit": "%"}, {"measurement": "response, % of control at 10 µM", "setting": "THP-1 [3]", "result": 0, "unit": "%"}]}, {"smiles": "COc1cc(OC)c(C(=O)c2cccc(C)c2)c(O)c1Br", "values": [{"measurement": "Activity", "setting": "[1]", "result": 32, "unit": "%"}, {"measurement": "inhibition at 10 µM", "setting": "THP-1 [2]", "result": 76, "unit": "%"}, {"measurement": "response, % of control at 10 µM", "setting": "THP-1 [3]", "result": 4, "unit": "%"}]}, {"smiles": "COc1ccc(C(=O)c2c(OC)cc(OC)c(Br)c2O)cc1", "values": [{"measurement": "Activity", "setting": "[1]", "result": 34, "unit": "%"}, {"measurement": "inhibition at 10 µM", "setting": "THP-1 [2]", "result": 82, "unit": "%"}, {"measurement": "response, % of control at 10 µM", "setting": "THP-1 [3]", "result": 6, "unit": "%"}]}, {"smiles": "COc1cc(OC)c(C(=O)c2cccc(Cl)c2)c(O)c1Br", "values": [{"measurement": "Activity", "setting": "[1]", "result": 33, "unit": "%"}, {"measurement": "inhibition at 10 µM", "setting": "THP-1 [2]", "result": 78, "unit": "%"}, {"measurement": "response, % of control at 10 µM", "setting": "THP-1 [3]", "result": 10, "unit": "%"}]}, {"smiles": "C[C@@H]1C[C@H]2[C@@H]3CCC4=CC(=O)C=C[C@]4(C)[C@@]3(F)[C@@H](O)C[C@]2(C)[C@@]1(O)C(=O)CO", "note": "[DEXAMETHASONE]", "values": [{"measurement": "Activity", "setting": "[5]", "result": 0, "unit": "%"}, {"measurement": "inhibition at 1 µM", "setting": "THP-1 [6]", "result": 94, "unit": "%"}, {"measurement": "inhibition at 1 µM", "setting": "THP-1 [7]", "result": 72, "unit": "%"}]}]}
